Data reported in article PMC12163657 (ACS Omega, 2025).

Columns and labels:
CYP 3A4 = CYP 3A4 (Homo sapiens, UniProt P08684); experiment: CYP inhibition in human liver microsomes; format: in vitro ADME
[1] = Plasma protein binding, rapid equilibrium dialysis, mouse plasma; format: in vitro ADME; settings: undiluted plasma
ESR1 WT = biological target: T1, ESR1 WT (Homo sapiens, UniProt P03372); experiment: AP; format: cell-based
T1 sequence (P03372 1-595): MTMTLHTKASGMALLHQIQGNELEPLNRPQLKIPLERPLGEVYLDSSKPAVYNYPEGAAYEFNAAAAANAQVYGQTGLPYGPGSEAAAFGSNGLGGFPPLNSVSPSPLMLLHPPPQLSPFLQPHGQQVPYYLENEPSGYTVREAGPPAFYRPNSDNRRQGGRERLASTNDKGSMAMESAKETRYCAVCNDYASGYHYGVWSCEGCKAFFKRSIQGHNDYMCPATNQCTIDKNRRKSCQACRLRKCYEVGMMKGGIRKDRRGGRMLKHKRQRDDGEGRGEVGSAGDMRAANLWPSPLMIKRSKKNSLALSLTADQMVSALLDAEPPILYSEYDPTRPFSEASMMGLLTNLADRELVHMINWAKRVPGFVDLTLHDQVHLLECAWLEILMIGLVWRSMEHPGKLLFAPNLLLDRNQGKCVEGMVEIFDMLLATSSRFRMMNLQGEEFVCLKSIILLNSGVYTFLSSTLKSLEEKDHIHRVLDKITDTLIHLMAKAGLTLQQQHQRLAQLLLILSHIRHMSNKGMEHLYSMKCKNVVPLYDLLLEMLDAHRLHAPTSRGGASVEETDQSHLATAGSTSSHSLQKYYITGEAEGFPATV

[2] = Plasma protein binding, rapid equilibrium dialysis, dog plasma; format: in vitro ADME
hERG ion channels = hERG ion channels (Homo sapiens, UniProt Q12809); experiment: hERG patch clamp assay; format: cell-based; settings: at 30 μM
Chain of hERG ion channels (Q12809 whole entry): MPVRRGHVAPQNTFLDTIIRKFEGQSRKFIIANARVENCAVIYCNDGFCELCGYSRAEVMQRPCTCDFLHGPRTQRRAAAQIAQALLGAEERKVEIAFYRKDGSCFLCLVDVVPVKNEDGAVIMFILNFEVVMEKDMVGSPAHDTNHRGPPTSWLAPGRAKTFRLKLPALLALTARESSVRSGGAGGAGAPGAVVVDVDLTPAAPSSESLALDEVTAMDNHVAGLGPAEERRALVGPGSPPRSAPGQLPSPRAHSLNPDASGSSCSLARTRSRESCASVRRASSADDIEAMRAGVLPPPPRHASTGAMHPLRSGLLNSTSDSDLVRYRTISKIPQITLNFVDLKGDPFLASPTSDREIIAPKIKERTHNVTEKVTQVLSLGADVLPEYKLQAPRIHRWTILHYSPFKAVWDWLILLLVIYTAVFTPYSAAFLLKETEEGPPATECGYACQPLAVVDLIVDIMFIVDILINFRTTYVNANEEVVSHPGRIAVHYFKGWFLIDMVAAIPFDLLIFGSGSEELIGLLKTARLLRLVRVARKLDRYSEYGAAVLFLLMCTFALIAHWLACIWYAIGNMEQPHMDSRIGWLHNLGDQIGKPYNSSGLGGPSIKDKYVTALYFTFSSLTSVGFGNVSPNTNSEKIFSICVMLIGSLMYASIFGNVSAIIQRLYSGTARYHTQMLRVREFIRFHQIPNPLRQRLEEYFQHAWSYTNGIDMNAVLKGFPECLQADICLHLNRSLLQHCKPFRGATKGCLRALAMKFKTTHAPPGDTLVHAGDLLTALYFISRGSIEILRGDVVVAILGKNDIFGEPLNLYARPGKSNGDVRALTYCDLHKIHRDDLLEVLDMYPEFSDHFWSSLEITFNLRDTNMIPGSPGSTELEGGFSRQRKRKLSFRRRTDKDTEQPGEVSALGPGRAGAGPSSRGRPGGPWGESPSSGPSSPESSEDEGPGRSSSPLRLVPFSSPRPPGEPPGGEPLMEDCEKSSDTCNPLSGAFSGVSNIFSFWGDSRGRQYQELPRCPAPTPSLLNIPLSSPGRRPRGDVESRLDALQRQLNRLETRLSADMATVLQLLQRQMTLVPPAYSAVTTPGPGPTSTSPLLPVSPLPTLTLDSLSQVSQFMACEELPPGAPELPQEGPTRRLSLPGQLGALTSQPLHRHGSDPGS

[3] = Single-dose pharmacokinetics, rat; format: in vivo; settings: Sprague-Dawley, serum
[4] = Mouse hepatocyte stability; format: in vitro ADME; settings: hepatocytes
[5] = Plasma protein binding, rapid equilibrium dialysis, rat plasma; format: in vitro ADME
ERα = biological target: T2, ERα (Homo sapiens, UniProt P03372); experiment: Reporter assay of gene transcription activity, ERα; format: cell-based
T2 sequence (P03372 1-595): T1 sequence (P03372 1-595)

PR = biological target: T3, PR (Homo sapiens, UniProt P06401); experiment: Reporter assay of gene transcription activity, PR; format: cell-based
T3 sequence (P06401 1-933): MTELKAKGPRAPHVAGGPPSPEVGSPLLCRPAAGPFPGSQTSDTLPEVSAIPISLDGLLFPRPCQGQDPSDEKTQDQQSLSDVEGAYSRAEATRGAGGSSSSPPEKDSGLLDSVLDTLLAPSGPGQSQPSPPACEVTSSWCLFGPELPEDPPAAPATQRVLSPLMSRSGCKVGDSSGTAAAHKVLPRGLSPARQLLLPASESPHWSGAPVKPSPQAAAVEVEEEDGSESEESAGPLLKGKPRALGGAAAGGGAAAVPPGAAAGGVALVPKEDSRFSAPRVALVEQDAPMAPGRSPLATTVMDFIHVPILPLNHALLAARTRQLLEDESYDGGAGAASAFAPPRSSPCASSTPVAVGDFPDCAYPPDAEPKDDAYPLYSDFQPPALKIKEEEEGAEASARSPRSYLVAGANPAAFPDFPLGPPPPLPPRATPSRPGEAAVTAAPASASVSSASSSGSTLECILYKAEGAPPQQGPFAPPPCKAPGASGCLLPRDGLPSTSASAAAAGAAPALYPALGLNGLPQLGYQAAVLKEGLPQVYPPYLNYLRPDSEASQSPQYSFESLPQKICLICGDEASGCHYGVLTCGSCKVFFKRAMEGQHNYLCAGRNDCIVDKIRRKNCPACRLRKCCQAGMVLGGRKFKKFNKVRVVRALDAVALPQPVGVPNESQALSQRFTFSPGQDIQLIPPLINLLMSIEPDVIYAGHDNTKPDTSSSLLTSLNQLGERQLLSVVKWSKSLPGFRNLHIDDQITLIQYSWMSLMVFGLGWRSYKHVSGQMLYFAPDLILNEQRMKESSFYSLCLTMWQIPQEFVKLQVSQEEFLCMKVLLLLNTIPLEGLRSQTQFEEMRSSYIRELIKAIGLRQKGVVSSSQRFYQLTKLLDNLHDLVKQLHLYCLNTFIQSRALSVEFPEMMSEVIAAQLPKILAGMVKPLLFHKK

ST941/C cells = experiment: ST941/C cell proliferation; format: cell-based; settings: read-out: ST941/C cell prolif. pIC50 (converted)
[6] = Plasma protein binding, rapid equilibrium dialysis, cyno plasma; format: in vitro ADME, cynomolgus monkey
[7] = test system: CAMA-1 ESR1 Tyr537Ser cells; experiment: CAMA-1 cell proliferation, ESR1 Tyr537Ser; format: cell-based; settings: Homo sapiens, CAMA-1, read-out: CAMA-1 cell prolif. pIC50 (converted)

Chain of CYP 3A4 (P08684 whole entry): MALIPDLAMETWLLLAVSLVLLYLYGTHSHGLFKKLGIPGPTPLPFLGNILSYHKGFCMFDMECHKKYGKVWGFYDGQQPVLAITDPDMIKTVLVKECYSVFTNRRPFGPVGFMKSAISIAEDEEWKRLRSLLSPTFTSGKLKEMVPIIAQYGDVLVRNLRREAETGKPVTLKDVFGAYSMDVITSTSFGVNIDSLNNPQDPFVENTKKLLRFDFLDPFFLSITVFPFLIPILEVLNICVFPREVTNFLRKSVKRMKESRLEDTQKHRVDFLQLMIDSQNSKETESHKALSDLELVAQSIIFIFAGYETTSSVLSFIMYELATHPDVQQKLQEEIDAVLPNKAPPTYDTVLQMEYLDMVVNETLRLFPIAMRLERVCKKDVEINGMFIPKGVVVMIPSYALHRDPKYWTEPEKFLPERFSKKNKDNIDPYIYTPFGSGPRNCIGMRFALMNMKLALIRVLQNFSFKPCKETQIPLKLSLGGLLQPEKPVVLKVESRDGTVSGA

CCCN1CC(Oc2ccc([C@@H]3c4[nH]c5ccccc5c4C[C@@H](C)N3CC(C)(C)F)cc2)C1 [compound 21, (1R,3R)-2-(2-Fluoro-2-methylpropyl)-3-methyl-1-(4-((1-propylazetidin-3-yl)oxy)phenyl)-2,3,4,9-tetrahydro-1H-pyrido[3,4-b]indole]
IC50 (CYP 3A4): > 10 µM | fraction unbound at 4 h, 1 µM [1]: 0.0006 | IC50 (ESR1 WT): 0.00251 µM | Plasma free drug percentage [2]: 0.04% | hERG inhibition (hERG ion channels): did not inhibit | AUC ([3]; iv, 0.5 mg/kg): 454 ng·h/mL | Cmax ([3]; iv, 0.5 mg/kg): 313 ng/mL | Vd ([3]; iv, 0.5 mg/kg): 8 L/kg | clearance ([3]; iv, 0.5 mg/kg): 13.3 mL/min/kg | half-life ([3]; iv, 0.5 mg/kg): 7 h | AUC ([3]; po, 5 mg/kg): 2590 ng·h/mL | Cmax ([3]; po, 5 mg/kg): 138 ng/mL | Tmax ([3]; po, 5 mg/kg): 1.5 h | bioavailability ([3]; po, 5 mg/kg): 55% | half-life ([3]; po, 5 mg/kg): 16 h | half-life [4]: > 6 h | hepatocyte CLint [4]: < 3.9 µL/min/1e6 cells | Plasma free drug percentage [5]: 0.24% | IC50 (ERα; ERα pIC50, agonist mode, agonist mode): > 3.16 µM | IC50 (ERα; ERα pIC50, antag. mode, antag. mode): 0.001 µM | IC50 (PR): > 3.16 µM | agonist cross-reactivity on PR (PR; in words): no agonist cross-reactivity | PR pIC50, antag. mode (PR; reporter assay, antag. mode): <5.5 | IC50 (ST941/C cells): 0.0316 µM | Plasma free drug percentage [6]: 0.13% | IC50 [7]: 0.0126 µM
